Assay: Binding affinity to NL63-CoV main protease by FRET assay
Parameters: species or system Human coronavirus NL63

Question: Which Ki does the source give for `CC(C)(C)[C@H](NC(=O)C(F)(F)F)C(=O)N1C[C@H]2[C@@H]([C@H]1C(=O)N[C@H](C#N)C[C@@H]1CCNC1=O)C2(C)C` here?
Answer: The Ki was 226 nM.

Reference: ChEMBL document CHEMBL5137053 (J Med Chem, 2022)
